# Data from patent US20040260318A1, “Anastomotic connector devices” (Angiotech International AG, priority 2003, published 2004).
# Columns and labels:
# stromelysin (MMP-3) mRNA = assay: IL-1 induced MMP-3 (stromelysin) mRNA expression in chondrocytes, Northern blot
# [1] = system: Chick Chorioallantoic Membrane; assay: Chick chorioallantoic membrane (CAM) angiogenesis assay; conditions: for Inhibition/n: 48 hours
# [2] = system: AP-1 DNA binding activity; assay: IL-1 induced AP-1 DNA binding activity, gel mobility shift assay; assay type: cell-based; conditions: chondrocyte lysates, pretreated at 10^−7 to 10^−5 M for 24 hours
# Method: Binding activity was assayed with a radiolabeled human AP-1 sequence probe and gel mobility shift assay. Extracts from chondrocytes untreated or treated with various amounts of paclitaxel (10^−7 to 10^−5 M) followed by IL-1β (20 ng/ml) were incubated with excess probe on ice for 30 minutes, followed by non-denaturing gel electrophoresis. The “com” lane contains excess unlabeled AP-1 oligonucleotide.
# [3] = system: AP-1 transcriptional activity; assay: IL-1 stimulated AP-1 driven CAT reporter gene activity in chondrocytes; assay type: cell-based; conditions: transfected chondrocytes, concentration dependent, 10^−7 to 10^−5 M
# From the text: The results shown are representative of three independent experiments.
# collagenase (MMP-1) mRNA = assay: IL-1 induced MMP-1 (collagenase) mRNA expression in chondrocytes, Northern blot
# [4] = system: Primary human smooth muscle cells; assay: Screening assay for smooth muscle cell migration (Boyden chamber, rhPDGF-BB chemotaxis); assay type: cell-based; conditions: 4 hours migration toward rhPDGF-BB 10 ng/mL, FIG. 8
# Method: Primary human smooth muscle cells are starved of serum in smooth muscle cell basal media containing insulin and human basic fibroblast growth factor (bFGF) for 16 hours prior to the assay. […] A 100 μL volume of smooth muscle cells (approximately 20,000-25,000 cells) is added to the top of a Boyden chamber assembly (Chemicon QCM Chemotaxis 96-well migration plate). To the bottom wells, the chemotactic agent, recombinant human platelet derived growth factor (rhPDGF-BB) is added at a concentration of 10 ng/mL in a total volume of 150 μL. Paclitaxel is prepared in DMSO at a concentration of 10^−2 M and serially diluted 10-fold to give a range of stock concentrations (10^−8 M to 10^−2 M). Paclitaxel is added to cells by directly adding paclitaxel DMSO stock solutions, prepared earlier, at a 1/1000 dilution, to the cells in the top chamber. […]
# At the end of the 4 hour period, cells in the top chamber are discarded and the smooth muscle cells attached to the underside of the filter are detached for 30 minutes at 37° C. in Cell Detachment Solution (Chemicon). […] Relative fluorescence units from triplicate wells are averaged after subtracting background fluorescence (control chamber without chemoattractant) and average number of cells migrating is obtained from a standard curve of smooth muscle cells serially diluted from 25,000 cells/well down to 98 cells/well.
# Solubility in water = assay type: physicochemical
# [5] = chondrocytes pretreated for 24 hours, IL-1 induced
smiles,measurement,setting,value
"CC(=O)O[C@H]1C(=O)[C@@]2(C)[C@H]([C@H](OC(=O)c3ccccc3)[C@]3(O)C[C@H](OC(=O)[C@H](O)[C@@H](NC(=O)c4ccccc4)c4ccccc4)C(C)=C1C3(C)C)[C@]1(OC(C)=O)CO[C@@H]1C[C@@H]2O [paclitaxel, 5β,20-Epoxy-1,2Alpha,4,7β,10β,13Alpha-hexahydroxytax-11-en-9-one-4,10-diacetate-2-benzoate-13-(Alpha-phenylhippurate)]",concentration inhibiting stromelysin expression in vitro,stromelysin (MMP-3) mRNA,10^−6 M
same,inhibition of stromelysin mRNA expression,stromelysin (MMP-3) mRNA; at 10^−5 M,complete inhibition
same,levels of stromelysin mRNA,stromelysin (MMP-3) mRNA; [5],significantly reduced
same,Inhibition/n,"[1]; 0.25 ug in methylcellulose (10 ul) disk, CAMs with positive antiangiogenesis response / n",2/11
same,Inhibition/n,[1]; 0.5 ug in methylcellulose (10 ul) disk,6/11
same,Inhibition/n,[1]; 1 ug in methylcellulose (10 ul) disk,6/15
same,Inhibition/n,[1]; 5 ug in methylcellulose (10 ul) disk,20/27
same,Inhibition/n,[1]; 10 ug in methylcellulose (10 ul) disk,16/21
same,Inhibition/n,[1]; 30 ug in methylcellulose (10 ul) disk,31/31
same,angiogenesis in the CAM,[1]; 48 hours after application,inhibited
same,"avascular gradient scale, maximal avascular zone","[1]; within 48 hours, depending on concentration",3
same,IL-1 induced AP-1 binding activity to DNA,[2],decreased
same,IL-1 induced AP-1 reporter gene CAT activity,[3],reduced
same,concentration inhibiting collagenase expression in vitro,collagenase (MMP-1) mRNA,10^−6 M
same,inhibition of collagenase mRNA expression,collagenase (MMP-1) mRNA; at 10^−5 M,complete inhibition
same,levels of collagenase mRNA,collagenase (MMP-1) mRNA; [5],significantly reduced
same,IC50,[4],760 pM
same,solubility in water,Solubility in water,insoluble in water
